The values that follow come from patent US20080193402A1, “Depilatory Compositions” (priority 2005, published 2008).

The data set is described as follows: 2AET storage stability at 40° C. in different packages. It counts as physicochemical. The procedure: The single phase depilatory was then packaged into two separate containers. The first was an aluminum can with a bag-on-valve system, while the second was a standard high density polyethylene bottle.
The 2AET levels were evaluated at initial, 1 month and 3 months after storage at 40° C. to determine stability profiles.

In the case of `NCCS` [Example 2AET, 2-aminoethanethiol], the 2AET level reads like this: (Example 13 single phase depilatory in HDPE (full), 1 month/40° C.) 6.7%; (Example 13 single phase depilatory in HDPE (full), 3 months/40° C.) 6.6%; (Example 13 single phase depilatory in HDPE (full), initial) 7.2%; (Example 13 single phase depilatory in HDPE (half), 1 month/40° C.) 6.3%; (Example 13 single phase depilatory in HDPE (half), 3 months/40° C.) 5.9%; (Example 13 single phase depilatory in HDPE (half), initial) 7.1%. Moreover, the 2AET level reads like this: (Example 13 single phase depilatory in aluminum can with bag-on-valve, 1 month/40° C.) 7.3%; (Example 13 single phase depilatory in aluminum can with bag-on-valve, 3 months/40° C.) 7.3%; (Example 13 single phase depilatory in aluminum can with bag-on-valve, initial) 7.3%.
